From PubChem BioAssay (NCI) come the findings set out here.

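In this assay, cells in 96-well plates receive the compound at five concentrations for 48 hours. Endpoints are linearly interpolated between the surrounding concentrations. GI50: concentration for 50% inhibition of growth. TGI marks complete inhibition of growth.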

Test systems include MDA-MB-435; LOX IMVI melanoma; A549 NSCLC; BT-549 breast; OVCAR-8 ovarian; SF-295 CNS; TK-10 renal; NCI-H522 lung; SNB-78 CNS; DLD-1 colon; XF 498 CNS; P388 leukemia.
Assay in all cases: NCI tumour cell line growth inhibition, 48 h

On to `Cc1cc(N/N=C/c2nc(-c3ccc(Cl)cc3)oc2C)c2cc(Br)ccc2n1`, for which the GI50 was 1910 nM in the assay on MDA-MB-435; 1930 nM in the assay with LOX IMVI melanoma; 1770 nM with A549 NSCLC; 6910 nM with BT-549 breast; 2410 nM with OVCAR-8 ovarian; 12.4 µM in the assay on SF-295 CNS. Besides, the GI50 is 1800 nM in the assay on TK-10 renal and 2020 nM in the assay on NCI-H522 lung. For the same molecule, the TGI in the assay with MDA-MB-435 came out at 3.94 µM; in the assay on LOX IMVI melanoma, 3.73 µM; in the assay with A549 NSCLC it was 3.71 µM; in the assay with BT-549 breast it was 19.9 µM; with OVCAR-8 ovarian, 5.97 µM; in the assay with SF-295 CNS, 26.6 µM. Besides, the TGI was 3.49 µM in the assay with TK-10 renal and 4.51 µM with NCI-H522 lung.
As for `c1cc2c3c(c1)c1cc4c(cc1c[n+]3CC2)OCO4`, the TGI was 47.1 µM in the assay on SNB-78 CNS; above 96.1 µM in the assay with LOX IMVI melanoma; 10.2 µM in the assay on A549 NSCLC; 121 µM in the assay with DLD-1 colon; 10.9 µM in the assay on XF 498 CNS; 25.3 µM in the assay with OVCAR-8 ovarian. In addition, the TGI was 13.1 µM in the assay with SF-295 CNS, 4.22 µM with P388 leukemia and 10.1 µM with NCI-H522 lung.
For `c1ccc2c(c1)NCc1cc3ccccc3nc1O2`, the TGI in the assay with SNB-78 CNS, in the assay on LOX IMVI melanoma, with A549 NSCLC, in the assay with DLD-1 colon, in the assay on XF 498 CNS and in the assay with OVCAR-8 ovarian was above 100 µM throughout. Also, the TGI in the assay on SF-295 CNS, in the assay on P388 leukemia and with NCI-H522 lung was above 100 µM in each case.
Consider `CCOc1cc(/C=C/C(=O)C(C(=O)/C=C/c2ccc(OC(=O)CNc3nc4ccccc4[nH]3)c(OCC)c2)C(=O)CNc2nc3ccccc3[nH]2)ccc1OC(=O)CNc1nc2ccccc2[nH]1`, for which the GI50 with MDA-MB-435 was 2070 nM; in the assay with LOX IMVI melanoma, 1660 nM; in the assay on A549 NSCLC it was 3550 nM; in the assay with BT-549 breast, 1450 nM; in the assay on SF-295 CNS it was 7.86 µM; in the assay with TK-10 renal it was 3240 nM. The GI50 in the assay on NCI-H522 lung was 3290 nM. Besides, the TGI in the assay with MDA-MB-435 was determined as 6.92 µM; with LOX IMVI melanoma it was 3.02 µM; with A549 NSCLC it was 27 µM; in the assay with BT-549 breast, 3.13 µM; in the assay on SF-295 CNS, 22.7 µM; with TK-10 renal, 14.2 µM. In the assay with NCI-H522 lung, the TGI is 12.5 µM.
As for `COc1ccc(C2=[S+]C(c3ccccc3)(c3ccccc3)c3ccccc32)cc1`, the TGI with MDA-MB-435 is 41.1 µM; with LOX IMVI melanoma, 31.9 µM; with A549 NSCLC it was above 100 µM; in the assay with BT-549 breast, 53.9 µM; in the assay on OVCAR-8 ovarian, above 100 µM; in the assay with SF-295 CNS, 88.8 µM. Besides, the TGI with TK-10 renal worked out at 73.3 µM; in the assay on NCI-H522 lung, 79.8 µM.
For `O=C(N/N=C\c1cccc2ccccc12)Nc1ccccc1`, the TGI in the assay on MDA-MB-435, in the assay on LOX IMVI melanoma, in the assay with BT-549 breast, with OVCAR-8 ovarian, with SF-295 CNS and in the assay on TK-10 renal was above 100 µM throughout.
Turning to `C/C(=N\NC(=O)c1ccc(Cl)cc1)c1nc2ncccc2[nH]1`, the TGI in the assay with MDA-MB-435 is above 100 µM; in the assay with LOX IMVI melanoma, 57.8 µM; with A549 NSCLC, above 100 µM; in the assay with BT-549 breast it was 85.5 µM; in the assay on OVCAR-8 ovarian, 58.6 µM; in the assay with SF-295 CNS, above 100 µM. Also, the figures for the TGI in the assay with TK-10 renal and in the assay with NCI-H522 lung were 64.9 µM and 58.3 µM, respectively.
Turning to `Cc1cn(-c2cccc(NC(=O)c3ccc(C)c(Nc4nccc(-c5cccnc5)n4)c3)c2)cn1`, the GI50 was 1860 nM with MDA-MB-435; 1730 nM in the assay with LOX IMVI melanoma; 1550 nM in the assay with A549 NSCLC; 1490 nM in the assay with BT-549 breast; 1100 nM in the assay with OVCAR-8 ovarian; 2040 nM in the assay on TK-10 renal. For the same molecule, the GI50 with NCI-H522 lung was 1440 nM. Further, the TGI with MDA-MB-435 was found to be 3.87 µM; in the assay on LOX IMVI melanoma, 3.48 µM; with A549 NSCLC, 3.34 µM; in the assay with BT-549 breast it was 3.11 µM; in the assay on OVCAR-8 ovarian, 2.5 µM; with TK-10 renal, 3.6 µM. In addition, in the assay with NCI-H522 lung, the TGI is 3.07 µM.
On to `CCOC(=O)/C=C/c1c(C)[nH]c(=O)[nH]c1=O`, for which the TGI in the assay on SNB-78 CNS, in the assay with LOX IMVI melanoma, in the assay with A549 NSCLC, with DLD-1 colon, in the assay with XF 498 CNS and in the assay on OVCAR-8 ovarian was above 250 µM in each case. The TGI with SF-295 CNS is above 250 µM; in the assay with P388 leukemia it was above 141 µM; in the assay with NCI-H522 lung it was above 250 µM.
As to `COc1cc(-c2ccc(N=Nc3ccc4c(S(=O)(=O)O)cc(S(=O)(=O)O)c(N)c4c3O)c(OC)c2)ccc1N=Nc1ccc2c(S(=O)(=O)O)cc(S(=O)(=O)O)c(N)c2c1O`, the TGI in the assay with SNB-78 CNS, in the assay with LOX IMVI melanoma, with A549 NSCLC, with DLD-1 colon, in the assay on XF 498 CNS and in the assay with OVCAR-8 ovarian was above 100 µM each time. Also, the TGI with SF-295 CNS, in the assay with P388 leukemia and in the assay with NCI-H522 lung was above 100 µM each time.
With `O=C1CCC[C@H]2O[C@@H](COC(=O)c3ccccc3)C[C@H]2O1`, the TGI in the assay on MDA-MB-435, in the assay on A549 NSCLC, in the assay with OVCAR-8 ovarian and in the assay on SF-295 CNS was above 100 µM in each case.
On to `Cc1ccc(Cl)cc1N=NC(=O)NNc1cc(Cl)ccc1C`, for which the TGI in the assay with MDA-MB-435 was 99 µM; in the assay with BT-549 breast, 43.9 µM; with SF-295 CNS, above 100 µM; in the assay with NCI-H522 lung, 27.6 µM.
As for `COc1cccc2c1C(=O)c1c(O)c3c(c(O)c1C2=O)C[C@@](O)(C(=O)COC(=O)c1ccccc1)C[C@@H]3OC1CC(N)C(O)C(C)O1` (some centres undefined), the GI50 with MDA-MB-435 is 137 nM; in the assay with BT-549 breast it was 700 nM; in the assay with OVCAR-8 ovarian, 154 nM; in the assay on TK-10 renal, 151 nM. Also, the TGI with MDA-MB-435 turned out to be 0.284 µM; in the assay with BT-549 breast, 2.32 µM; in the assay on OVCAR-8 ovarian, 1.18 µM; in the assay with TK-10 renal it was 0.879 µM.
In the case of `CCOC(=O)NC(Nc1cc(Cl)ccc1OC)(C(F)(F)F)C(F)(F)F`, the TGI with MDA-MB-435, in the assay on LOX IMVI melanoma, in the assay on A549 NSCLC, in the assay with BT-549 breast, in the assay on TK-10 renal and in the assay on NCI-H522 lung was above 100 µM each time.
